# Measurements from US10487112B2, “Pediococcus acidilactici derived antimicrobial hexapeptide and preparation method thereof” (Jiangnan University, priority 2016, dated 2019).
# Like-named read-outs stand apart in the source and are kept apart here. No end group written: not given here.
# What was measured:
# [1] = Antioxidant capability, clearing hydrogen peroxide
# Excerpt: (§1) The feed contains a certain quantity of unsaturated fat, fatty acid, lipid-soluble vitamin, carotenoid and other lipid-soluble substances, which are easily oxidized in a storage process of the feed, and particularly fat and fatty acid can be oxidized to result in rancidity to generate different compounds such as aldehyde, alcohol, fat and acid which may generate various peculiar smells to seriously affect the palatability of the feed, and some compounds can generate adverse effects for the animals due to certain toxicity. The antioxidant capability of the lactein R16 to hydrogen peroxide, hydroxyl radicals, DPPH.radicals and superoxide anions is shown as FIG. 5.
# [2] = Antioxidant capability, clearing superoxide anions
# Excerpt: as §1
# [3] = test system: Staphylococcus aureus ATCC 6538; type: cell-based
# Experimental: (§2) The antimicrobial activity is detected by adopting a minimum inhibitory concentration (MIC) method, and the operation is as follows:
# (§3) (a) inoculating the bacteria into an LB liquid culture medium according to the inoculation amount of 1%, and carrying out shaking culture over the night at 37° C. and 200r·min^−1;
# (§4) (b) inoculating the culture solution into 20 mL of the LB liquid culture medium according to the inoculation amount of 1%, and carrying out shaking culture at 37° C. and 200r·min′ until the OD600 is equal to about 0.5; […]
# (§5) (e) adding 450 μL of the prepared bacterial suspension into an aseptic tissue culture plate, and then, respectively adding 50 μL of antimicrobial active substance diluents with corresponding concentrations to ensure that the concentrations of to-be-measured antimicrobial active substances are respectively 25.6, 12.8, 6.4, 3.2, 1.6, 0.8, 0.4, 0.2 and 0.1 mg·mL^−1; and carrying out culture in a 37° C. constant-temperature incubator for 18-24 h by taking 500 μL of the bacterial suspension as a positive control and 500 μL of the LB liquid culture medium as a negative control; and […]
# [4] = Antioxidant capability, clearing hydroxyl radicals
# Excerpt: as §1
# Escherichia coli [5] = assay: Stability of lactein R16 in pH (antimicrobial experiment after pH treatment); type: physicochemical
# Experimental: 10 parts of purified active substance lactein R16 with the concentration of 100 mg·mL^−1 is selected, the pH of the lactein R16 is respectively regulated to be 1.0-10.0 by using 1.0 mol·L^−1 NaOH and 1.0 mol·L^−1 HCl, the lactein R16 is treated in a 37° C. water bath kettle for 2 h, then, the pH of the lactein R16 is regulated to be 4.5, and an antimicrobial experiment is performed to observe the inhibition of the lactein R16 to Escherichia coli. The result is shown as FIG. 2.
# The antimicrobial activity of the lactein R16 is reduced step by step when the pH is 6.0-8.0, the reduction tendency is slow, and the residual activity is maintained at about 75%, which proves that the stability of the lactein R16 is reduced to a certain extent under such pH condition, but the pH has little influences on the stability of the lactein R16.
# Escherichia coli [6] = assay: Thermal stability of lactein R16 (antimicrobial experiment after heat treatment); type: physicochemical
# Experimental: 8 parts of purified active substance lactein R16 with the concentration of 100 mg·mL^−1 is selected and is respectively treated at 40° C., 50° C., 60° C., 70° C., 80° C., 90° C. and 100° C. for 30 min and is subjected to high-pressure sterilization at 121° C. for 15 min, and an antimicrobial experiment is performed to observe the inhibition of the lactein R16 to Escherichia coli. The result is shown as FIG. 3.
# The antimicrobial activity of the lactein R16 is lost by 59.98% after the lactein R16 is treated at 121° C. for 15 min.
# [7] = test system: Escherichia coli in the soybean meal; assay: Inhibition of Escherichia coli in fermented soybean meal; type: cell-based; settings: 48 h; for removal rate: 37° C.
# Experimental: (a) crushing soybean meal by using a blade crusher, adding 4 parts (the weight of each part is 40 g) of soybean meal with the serial numbers of group 5, group 6, group 7 and group 8 into a 500 mL fermentation flask, and carrying out sterilization at 105° C. for 10 min;
# (b) carrying out fermentation under conditions shown as table 3.
# (c) measuring the amount of Escherichia coli according to the natural standard for measuring Escherichia coli in the feed.
# The inhibiting effect of the lactein R16 to Escherichia coli in the soybean meal is studied by adding Escherichia coli into the sterilized soybean meal.
# [8] = test system: Escherichia coli ATCC 25922; assay: Antimicrobial spectrum, oxford-cup method; type: cell-based; parameters: key: “+++” represents for strong inhibition; “++” represents for relatively strong inhibition; “+” represents for inhibition; “−” represents for no inhibition; settings: 100 mg·mL^−1, oxford-cup
# Experimental: (§6) 8 parts of purified active substance lactein R16 with the concentration of 100 mg·mL^−1 is selected, and an inhibiting effect of the lactein R16 on Escherichia coli, Listeria monocytogenes and Staphylococcus aureus is detected by using an oxford-cup method.
# Saccharomyces cerevisiae = assay: Influences on probiotics, viable count; type: cell-based; settings: MRS medium with 6.4 mg·mL^−1, 37° C., 24 h
# Experimental: (§7) Each of probiotics is subjected to two-stage activation, is inoculated into an MRS culture medium containing 6.4 mg·mL^−1 of antimicrobial active substances according to the inoculation amount of 1% and is cultured at the constant temperature of 37° C. for 24 h in contrast with the probiotics inoculated into the MRS culture medium. Coated plate counting is performed by using a viable count method. The result is shown as FIG. 4.
# (§8) A microecological preparation used as one of green feed additives is widely applied to the feed, wherein a composite microecological preparation prepared from Saccharomycetes, Lactic Acid Bacteria and Bacillus is more common, not only can degrade and soften crude fibers and increase the content of proteins, but also can improve the palatability of the feed, regulate the intestinal microecological balance of the animals and promote digestive absorption and growth. Saccharomyces cerevisiae, Pediococcus pentosaceus, Enterococcus faecium, Lactobacillus plantarum and Bacillus subtilis are selected as a study object to study the influences of the lactein R16 on Saccharomyces cerevisiae, Pediococcus pentosaceus, Enterococcus faecium, Lactobacillus plantarum and Bacillus subtilis, and the result is shown as FIG. 4.
# Enterococcus faecium = assay: Influences on probiotics, viable count; type: cell-based; settings: MRS medium with 6.4 mg·mL^−1, 37° C.
# Experimental: as §7, §8
# Bacillus subtilis = assay: Influences on probiotics, viable count; type: cell-based; settings: MRS medium with 6.4 mg·mL^−1, 37° C.
# Experimental: as §7, §8
# Lactobacillus plantarum = assay: Influences on probiotics, viable count; type: cell-based; settings: MRS medium with 6.4 mg·mL^−1, 37° C., 24 h
# Experimental: as §7, §8
# Pediococcus pentosaceus = assay: Influences on probiotics, viable count; type: cell-based; settings: MRS medium with 6.4 mg·mL^−1, 37° C., 24 h
# Experimental: as §7, §8
# [9] = test system: Staphylococcus aureus ATCC 6538; assay: Antimicrobial spectrum, oxford-cup method; type: cell-based; parameters: key to Antimicrobial level: “+++” represents for strong inhibition; “++” represents for relatively strong inhibition; “+” represents for inhibition; “−” represents for no inhibition; settings: 100 mg·mL^−1, oxford-cup
# Experimental: as §6
# Escherichia coli JM109 = assay: Antimicrobial spectrum, oxford-cup method; type: cell-based; parameters: key to Antimicrobial level: “+++” represents for strong inhibition; “++” represents for relatively strong inhibition; “+” represents for inhibition; “−” represents for no inhibition; settings: 100 mg·mL^−1, oxford-cup
# Experimental: as §6
# [10] = test system: Listeria monocytogenes CMCC(B)54002; assay: Antimicrobial spectrum, oxford-cup method; type: cell-based; parameters: key to Antimicrobial level: “+++” represents for strong inhibition; “++” represents for relatively strong inhibition; “+” represents for inhibition; “−” represents for no inhibition; settings: 100 mg·mL^−1, oxford-cup
# Experimental: as §6
# Escherichia coli K99 = assay: Antimicrobial spectrum, oxford-cup method; type: cell-based; parameters: key to Antimicrobial level: “+++” represents for strong inhibition; “++” represents for relatively strong inhibition; “+” represents for inhibition; “−” represents for no inhibition; settings: 100 mg·mL^−1, oxford-cup
# Experimental: as §6
# [11] = test system: Listeria monocytogenes CMCC(B)54002; assay: Minimum inhibitory concentration (MIC) method; type: cell-based; settings: LB medium, 37° C., 18-24 h
# Experimental: as §2, §3, §4, §5
# [12] = Antioxidant capability, clearing DPPH radicals
# Excerpt: as §1
substance,measurement,setting,value
"ENGEEE [lactein R16, ENGEEE]",clearance rate,[1],25.65%
same,clearance rate,[2],10.11%
same,MIC,[3]; ATCC 6538,3400 µg/mL
same,MIC,"[3]; LB medium, 37° C., 18-24 h",3200 µg/mL
same,clearance rate,[4],70.13%
same,pH at which the antimicrobial activity reaches the maximum,"Escherichia coli [5]; 100 mg·mL^−1, pH 1.0-10.0, 37° C. water bath 2 h, then pH 4.5, inhibition of Escherichia coli",3.0-5.0
same,residual activity,"Escherichia coli [5]; pH 6.0-8.0, 37° C. 2 h, inhibition of Escherichia coli",about 75%
same,pH stability,Escherichia coli [5]; summary statement,good
same,activity retained in the process of pelletizing,Escherichia coli [6]; pelletizing at 75-85° C. for 1-2 min,completely retained
same,thermal stability,Escherichia coli [6]; summary statement,good
same,change of antimicrobial activity,"Escherichia coli [6]; treated at 40, 50, 60, 70 and 80° C. for 30 min, 100 mg·mL^−1",no obvious changes
same,antimicrobial activity lost,Escherichia coli [6]; treated at 90° C. for 30 min,21.95%
same,antimicrobial activity lost,Escherichia coli [6]; treated at 100° C. for 30 min,49.47%
same,antimicrobial activity lost,Escherichia coli [6]; treated at 121° C. for 15 min (high-pressure sterilization),59.98%
same,amount of Escherichia coli after fermentation,"[7]; 0.512 g in 40 g soybean meal, material-to-liquid ratio 1:0.8, 37° C., 1380·100 g^−1 before fermentation",123 ·100 g^−1
same,removal rate,"[7]; material-to-liquid ratio 1:0.8, 0.512 g in 40 g soybean meal",33.44%
same,removal rate,"[7]; material-water ratio 1:0.12, 0.512 g in 40 g soybean meal",56.64%
same,Antimicrobial level,[8],+
same,amount of Saccharomyces cerevisiae increased as comparison with contrast,Saccharomyces cerevisiae,24.50%
same,effect on Saccharomyces cerevisiae (in words),Saccharomyces cerevisiae,a certain effect on proliferating
same,total bacterial count after growing for 24 h,Enterococcus faecium,about 10^8 CFU·mL^−1
same,total bacterial count reduced as comparison with contrast,Enterococcus faecium; 24 h,6.92%
same,total bacterial count after growing for 24 h,Bacillus subtilis,about 10^8 CFU·mL^−1
same,total bacterial count reduced as comparison with contrast,Bacillus subtilis; 24 h,4.03%
same,effect on Lactobacillus plantarum (in words),Lactobacillus plantarum,a certain effect on proliferating
same,change of total bacterial count as comparison with contrast,Pediococcus pentosaceus,no obvious changes
same,Antimicrobial level,[9],+++
same,antimicrobial activity (in words),[9],strongest
same,Antimicrobial level,Escherichia coli JM109,++
same,antimicrobial activity (in words),Escherichia coli JM109,relatively strong antimicrobial activity
same,Antimicrobial level,[10],++
same,antimicrobial activity (in words),[10],relatively strong antimicrobial activity
same,Antimicrobial level,Escherichia coli K99,++
same,antimicrobial activity (in words),Escherichia coli K99,relatively strong antimicrobial activity
same,MIC,[11],6400 µg/mL
same,clearance rate,[12],79.42%
